# According to PubChem BioAssay AID2060906 (Molecular Pharmacology Branch, DTP, NCI, 2025):
# Test system: 485176-168-R4-J1-PDC complex spheroid growth
# Experiment: Anticancer human tumor 485176-168-R4-J1-PDC patient-derived pancreatic adenocarcinoma cell line growth inhibition [RAS]
# Details: for IC50: curve of first compound; for viability, T/C: stronger effect = lower value
# In short: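 Multi-cell-type spheroids: tumor cells plus HUVEC endothelial cells and mesenchymal stem cells. RAS-pathway inhibitors were combined with targeted agents, each dosed in half-log steps down from clinical Cmax, or from 10 microM when Cmax was unknown.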
# 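Note: spheroids exposed to compounds for seven days before readout.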
# 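Throughout, for viability, T/C: luminescence viability expressed relative to DMSO vehicle wells set as 100%.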
compound,measurement,setting,value
O=C(c1ccc(F)c(F)c1Nc1ccc(I)cc1F)N1CC(O)([C@@H]2CCCCN2)C1 + C#Cc1c(F)ccc2cc(O)cc(-c3ncc4c(N5CC6CCC(C5)N6)nc(OCC56CCCN5CC(F)C6)nc4c3F)c12,IC50,second compound 0.0316 µM,358 nM
same,IC50,second compound 0.1 µM,267 nM
same,IC50,second compound 0.316 µM,231 nM
same,IC50,second compound 1 µM,31 nM
same,IC50,second compound 3.16 µM,88.8 nM
same,IC50,second compound 10 µM,53.9 nM
same,"viability, T/C","second compound 0.0316 µM, first compound 0.00316 µM",80.3%
same,"viability, T/C","second compound 0.0316 µM, first compound 0.01 µM",79.3%
same,"viability, T/C","second compound 0.0316 µM, first compound 0.0316 µM",69.7%
same,"viability, T/C","second compound 0.0316 µM, first compound 0.1 µM",72.4%
same,"viability, T/C","second compound 0.0316 µM, first compound 0.316 µM",50.5%
same,"viability, T/C","second compound 0.0316 µM, first compound 1 µM",41.1%
same,"viability, T/C","second compound 0.1 µM, first compound 0.00316 µM",79%
same,"viability, T/C","second compound 0.1 µM, first compound 0.01 µM",82.2%
same,"viability, T/C","second compound 0.1 µM, first compound 0.0316 µM",72.6%
same,"viability, T/C","second compound 0.1 µM, first compound 0.1 µM",62.5%
same,"viability, T/C","second compound 0.1 µM, first compound 0.316 µM",48.2%
same,"viability, T/C","second compound 0.1 µM, first compound 1 µM",37.5%
same,"viability, T/C","second compound 0.316 µM, first compound 0.00316 µM",88%
same,"viability, T/C","second compound 0.316 µM, first compound 0.01 µM",72.3%
same,"viability, T/C","second compound 0.316 µM, first compound 0.0316 µM",71.1%
same,"viability, T/C","second compound 0.316 µM, first compound 0.1 µM",56%
same,"viability, T/C","second compound 0.316 µM, first compound 0.316 µM",45.4%
same,"viability, T/C","second compound 0.316 µM, first compound 1 µM",41%
same,"viability, T/C","second compound 1 µM, first compound 0.00316 µM",96%
same,"viability, T/C","second compound 1 µM, first compound 0.01 µM",77.7%
same,"viability, T/C","second compound 1 µM, first compound 0.0316 µM",49.5%
same,"viability, T/C","second compound 1 µM, first compound 0.1 µM",47.3%
same,"viability, T/C","second compound 1 µM, first compound 0.316 µM",58.2%
same,"viability, T/C","second compound 1 µM, first compound 1 µM",38.9%
same,"viability, T/C","second compound 3.16 µM, first compound 0.00316 µM",90.4%
same,"viability, T/C","second compound 3.16 µM, first compound 0.01 µM",86.4%
same,"viability, T/C","second compound 3.16 µM, first compound 0.0316 µM",64.4%
same,"viability, T/C","second compound 3.16 µM, first compound 0.1 µM",50.6%
same,"viability, T/C","second compound 3.16 µM, first compound 0.316 µM",38.3%
same,"viability, T/C","second compound 3.16 µM, first compound 1 µM",39.2%
same,"viability, T/C","second compound 10 µM, first compound 0.00316 µM",98.3%
same,"viability, T/C","second compound 10 µM, first compound 0.01 µM",60.1%
same,"viability, T/C","second compound 10 µM, first compound 0.0316 µM",57.8%
same,"viability, T/C","second compound 10 µM, first compound 0.1 µM",51%
same,"viability, T/C","second compound 10 µM, first compound 0.316 µM",46.8%
same,"viability, T/C","second compound 10 µM, first compound 1 µM",29.9%
CC1(C)CCC(Nc2ncc(C(F)(F)F)c(-c3c[nH]c4c(P(C)(C)=O)c(C#N)ccc34)n2)CN1 (stereo unspecified) + CCn1c(-c2cc(N3CCN(C)CC3)cnc2C(C)OC)c2c3cc(ccc31)-c1csc(n1)CC(NC(=O)C1CC1C)C(=O)N1CCCC(N1)C(=O)OCC(C)(C)C2,IC50,second compound 0.000949 µM,> 300 nM
same,IC50,second compound 0.003 µM,> 300 nM
same,IC50,second compound 0.00949 µM,82.5 nM
same,IC50,second compound 0.03 µM,121 nM
same,IC50,second compound 0.0949 µM,> 300 nM
same,IC50,second compound 0.3 µM,70 nM
same,"viability, T/C","second compound 0.000949 µM, first compound 0.000949 µM",94.9%
same,"viability, T/C","second compound 0.000949 µM, first compound 0.003 µM",91.1%
same,"viability, T/C","second compound 0.000949 µM, first compound 0.00949 µM",93%
same,"viability, T/C","second compound 0.000949 µM, first compound 0.03 µM",59.2%
same,"viability, T/C","second compound 0.000949 µM, first compound 0.0949 µM",55.1%
same,"viability, T/C","second compound 0.000949 µM, first compound 0.3 µM",49.3%
same,"viability, T/C","second compound 0.003 µM, first compound 0.000949 µM",93.5%
same,"viability, T/C","second compound 0.003 µM, first compound 0.003 µM",101%
same,"viability, T/C","second compound 0.003 µM, first compound 0.00949 µM",75.3%
same,"viability, T/C","second compound 0.003 µM, first compound 0.03 µM",54.5%
same,"viability, T/C","second compound 0.003 µM, first compound 0.0949 µM",52%
same,"viability, T/C","second compound 0.003 µM, first compound 0.3 µM",54.9%
same,"viability, T/C","second compound 0.00949 µM, first compound 0.000949 µM",84.9%
same,"viability, T/C","second compound 0.00949 µM, first compound 0.003 µM",96.3%
same,"viability, T/C","second compound 0.00949 µM, first compound 0.00949 µM",104%
same,"viability, T/C","second compound 0.00949 µM, first compound 0.03 µM",55.8%
same,"viability, T/C","second compound 0.00949 µM, first compound 0.0949 µM",51.5%
same,"viability, T/C","second compound 0.00949 µM, first compound 0.3 µM",46.9%
same,"viability, T/C","second compound 0.03 µM, first compound 0.000949 µM",101%
same,"viability, T/C","second compound 0.03 µM, first compound 0.003 µM",92.8%
same,"viability, T/C","second compound 0.03 µM, first compound 0.00949 µM",76.5%
same,"viability, T/C","second compound 0.03 µM, first compound 0.03 µM",64.4%
same,"viability, T/C","second compound 0.03 µM, first compound 0.0949 µM",49.8%
same,"viability, T/C","second compound 0.03 µM, first compound 0.3 µM",45.8%
same,"viability, T/C","second compound 0.0949 µM, first compound 0.000949 µM",87.1%
same,"viability, T/C","second compound 0.0949 µM, first compound 0.003 µM",76.8%
same,"viability, T/C","second compound 0.0949 µM, first compound 0.00949 µM",76.2%
same,"viability, T/C","second compound 0.0949 µM, first compound 0.03 µM",57.4%
same,"viability, T/C","second compound 0.0949 µM, first compound 0.0949 µM",61.9%
same,"viability, T/C","second compound 0.0949 µM, first compound 0.3 µM",54.8%
same,"viability, T/C","second compound 0.3 µM, first compound 0.000949 µM",89.3%
same,"viability, T/C","second compound 0.3 µM, first compound 0.003 µM",93.4%
same,"viability, T/C","second compound 0.3 µM, first compound 0.00949 µM",70.5%
same,"viability, T/C","second compound 0.3 µM, first compound 0.03 µM",57.3%
same,"viability, T/C","second compound 0.3 µM, first compound 0.0949 µM",47%
same,"viability, T/C","second compound 0.3 µM, first compound 0.3 µM",47.2%
Cc1nc(N2CCC3(CC2)COC(C)C3N)c(CO)nc1Sc1ccnc(N)c1Cl (stereo unspecified) + CCn1c(-c2cccnc2C(C)OC)c2c3cc(ccc31)N1CCOC(CC(NC(=O)C(C(C)C)N(C)C(=O)C3(F)CCN(C(=O)C#CC(C)(C)N(C)C)CC3)C(=O)N3CCCC(N3)C(=O)OCC(C)(C)C2)C1,IC50,second compound 0.000949 µM,> 10000 nM
same,IC50,second compound 0.003 µM,> 10000 nM
same,IC50,second compound 0.00949 µM,> 10000 nM
same,IC50,second compound 0.03 µM,> 10000 nM
same,IC50,second compound 0.0949 µM,> 10000 nM
same,IC50,second compound 0.3 µM,> 10000 nM
same,"viability, T/C","second compound 0.000949 µM, first compound 0.0316 µM",96.6%
same,"viability, T/C","second compound 0.000949 µM, first compound 0.1 µM",87.4%
same,"viability, T/C","second compound 0.000949 µM, first compound 0.316 µM",84%
same,"viability, T/C","second compound 0.000949 µM, first compound 1 µM",85.1%
same,"viability, T/C","second compound 0.000949 µM, first compound 3.16 µM",89.1%
same,"viability, T/C","second compound 0.000949 µM, first compound 10 µM",79.4%
same,"viability, T/C","second compound 0.003 µM, first compound 0.0316 µM",93.1%
same,"viability, T/C","second compound 0.003 µM, first compound 0.1 µM",103%
same,"viability, T/C","second compound 0.003 µM, first compound 0.316 µM",81%
same,"viability, T/C","second compound 0.003 µM, first compound 1 µM",68.9%
same,"viability, T/C","second compound 0.003 µM, first compound 3.16 µM",82%
same,"viability, T/C","second compound 0.003 µM, first compound 10 µM",71%
same,"viability, T/C","second compound 0.00949 µM, first compound 0.0316 µM",110%
same,"viability, T/C","second compound 0.00949 µM, first compound 0.1 µM",92.9%
same,"viability, T/C","second compound 0.00949 µM, first compound 0.316 µM",94.7%
same,"viability, T/C","second compound 0.00949 µM, first compound 1 µM",77.6%
same,"viability, T/C","second compound 0.00949 µM, first compound 3.16 µM",87.6%
same,"viability, T/C","second compound 0.00949 µM, first compound 10 µM",64.3%
same,"viability, T/C","second compound 0.03 µM, first compound 0.0316 µM",93.3%
same,"viability, T/C","second compound 0.03 µM, first compound 0.1 µM",91.2%
same,"viability, T/C","second compound 0.03 µM, first compound 0.316 µM",92.2%
same,"viability, T/C","second compound 0.03 µM, first compound 1 µM",69.2%
same,"viability, T/C","second compound 0.03 µM, first compound 3.16 µM",74.8%
same,"viability, T/C","second compound 0.03 µM, first compound 10 µM",73.9%
same,"viability, T/C","second compound 0.0949 µM, first compound 0.0316 µM",97.3%
same,"viability, T/C","second compound 0.0949 µM, first compound 0.1 µM",85.4%
same,"viability, T/C","second compound 0.0949 µM, first compound 0.316 µM",72.3%
same,"viability, T/C","second compound 0.0949 µM, first compound 1 µM",87.3%
same,"viability, T/C","second compound 0.0949 µM, first compound 3.16 µM",70.8%
same,"viability, T/C","second compound 0.0949 µM, first compound 10 µM",85.5%
same,"viability, T/C","second compound 0.3 µM, first compound 0.0316 µM",71.7%
same,"viability, T/C","second compound 0.3 µM, first compound 0.1 µM",65.4%
same,"viability, T/C","second compound 0.3 µM, first compound 0.316 µM",60.2%
same,"viability, T/C","second compound 0.3 µM, first compound 1 µM",66%
same,"viability, T/C","second compound 0.3 µM, first compound 3.16 µM",70.8%
same,"viability, T/C","second compound 0.3 µM, first compound 10 µM",66.2%
